Tests used:
[1] = test system: HEL cells; assay: MTT cell viability assay, HEL cells; type: cell-based; conditions: for IC50: Homo sapiens, HEL, 48 h
Experimental: (§1) To estimate the effects of N-Phenyl-2-pyrimidinamine derivatives (Figure 1A) on HEL, K562, and Jurkat cells, we treated these cells with the compounds at different concentrations (1–20 μM) for 48 h. […] H-121 could selectively impair the proliferation of HEL and Jurkat cells. H-123 blocked the proliferation of the Jurkat cells. Those four compounds had no toxicity to the HL7702 cell line.
(§2) To validate the effects of H-120 on the viability of HEL cells, we treated the cells with the compound at different concentrations (1–20 μM) for 24 h, 48 h, and 72 h. […] However, H-120 was not cytotoxic on normal HL7702 (IC50 > 20 μM) (Figure 1B). The morphology of HEL cells treated with H-120 gradually crumpled and appeared fragmented (Figure 1E).
(§3) The logarithmically grown HEL cells were seeded in a 96-well culture plate at a density of 8000 cells per well and treated with different concentrations of H-120 (0.125 μM, 0.25 μM, 0.5 μM, and 1 μM) or 0.1% DMSO (control). After 24 h, 48 h, and 72 h treatment, the cells were added to 10 μL of MTT reagent for 4 h, and then added to 100 μL of triple cleavage fluid (SDS 10 g, isobutanol 5 mL and 10M HCl 0.1 mL, dissolved with ddH2O into 100 mL solution). After using a microscope to observe the completely dissolved crystal, the cells’ optical absorbance value was measured at 570 nm using an enzyme-labeling instrument (BioTek, Winooski, VT, United States). Inhibition rate = (OD value of DMSO group-OD value of experimental group)/OD value of DMSO group × 100%.
The logarithmically grown HEL cells were collected and planted in 96-well plates at a density of 8000 cells per well. After the cell state was stabilized, HEL cells were treated with H-120 solution (0.125 μM, 0.25 μM, 0.5 μM, 1 μM), and then the OD value was measured at 570 nm in different periods of time. The growth curves were plotted.

[2] = test system: Jurkat cells; assay: MTT cell viability assay, Jurkat cells; type: cell-based; conditions: Homo sapiens, 48 h
Experimental: as §1, §3

[3] = test system: K562 cells; assay: MTT cell viability assay, K562 cells; type: cell-based; conditions: Homo sapiens, 48 h
Experimental: as §1, §3

[4] = test system: HL7702 cells; assay: MTT cytotoxicity on normal hepatic cell line HL7702; type: cell-based; conditions: Homo sapiens, L02, 48 h
Experimental: as §1, §2, §3

[5] = test system: F-MuLV-induced leukemia mice; assay: F-MuLV-induced erythroleukemia mice; type: in vivo, BALB/c mice; conditions: for number of leukemic cells in the spleens (H&E staining): VCR 0.25 mg/kg, H-120 1-4 mg/kg intraperitoneally
From the text: We used the F-MuLV-induced leukemia mice to determine the anti-leukemia activity of H-120. […] The effect of H-120 treatment is similar to that in the vincristine (VCR) treatment group (Figure 6A,C). […] The CD71 and Ter119 have been broadly used to reflect mice’s dynamic maturation of erythrocytes. We tested CD71 and Ter119 expression in spleen cells and bone marrow cells by using flow cytometry.
The NIH3T3 cells expressing the F-MuLV clone 57 vector were donated by Professor Ben-David Yaacov, Key Laboratory of Natural Product Chemistry, Chinese Academy of Sciences, Guizhou Province. In order to induce leukemia, BALB/c mice (male and females; Tongxin, Chongqing, China), aged one day, were administered a solitary intraperitoneal injection of F-MuLV. Then, infected neonates were weaned at 4 weeks and randomly divided into 6 groups: normal group (NC), model group (M), positive control group (VCR: 0.25 mg/kg), H-120 low dose group (H-120-L: 1 mg/kg), H-120 medium dose group (H-120-M: 2 mg/kg), and H-120 high dose group (H-120-H: 4 mg/kg). After 5 weeks of virus infection, mice were treated with H-120 intraperitoneally every other day for 3 weeks. The normal and model groups were given saline, and the control group was given vincristine intraperitoneally. Under the supervision of experienced staff, the leukemia mice were sacrificed humanely by cervical dislocation. Serum biochemical indexes of the mice were detected. The spleens of the mice were removed. A portion of the spleen was fixed in formaldehyde for 24 h, and paraffin was embedded and sliced. The effects of H-120 on the normal physiological structure of the spleen were observed by H&E staining. Then, part of the spleen tissue was ground and prepared into a single-cell suspension, which was stained with CD71, Ter119, CD4, CD8a, and B220 antibodies for 30 min, respectively. The expression of markers on the spleen cell surfaces of mice was analyzed by flow cytometry.

[6] = test system: HEL cells; assay: Annexin V-FITC/PI apoptosis detection by flow cytometry; type: cell-based; conditions: 1 μM
From the text: (§4) Apoptosis plays a crucial role in impairing cancer cell viability. To determine whether the H-120 inhibiting HEL cell growth is caused by apoptosis, we applied HEL cells with different concentrations of H-120. […] To explore the mechanism of apoptosis, we used JC-1 staining to detect the effect of H-120 on mitochondrial membrane potential. […] The results confirmed that H-120 can induce HEL cell apoptosis by impairing mitochondria.
For the apoptosis detection assay, the logarithmically grown HEL cells were treated with H-120 solution (0.125 μM, 0.25 μM, 0.5 μM, and 1 μM) for 24 h, 48 h, and 72 h. Subsequently, the cells were collected and rinsed three times with pre-cooled PBS. Based on the instruction of the Annexin V-FITC apoptosis detection kit, the cells were resuspended in 50 μL of 1 × binding buffer and stained for 15 minutes. Then, the apoptosis rate was determined using flow cytometry (ACEA NovoCyte, San Diego, CA, United States). For cell cycle analysis, HEL cells were treated with the different concentrations of H-120 (0.125 μM, 0.25 μM, 0.5 μM, 1 μM) for 24 h. […] Cells were stained with 0.5 mL of PI (propidium iodide, 50 µg/mL), RNase (5 µg/mL) inhibitor, and Triton × 100 (0.5 µg/mL) for 10 min at room temperature in the dark and then analyzed by flow cytometry.

[7] = test system: HEL cells; assay: JC-1 mitochondrial membrane potential assay; type: cell-based; conditions: 0.125-1 μM, 48 h, flow cytometry
Experimental: as §4
Cells (2 × 10^5) were seeded in a 2 mL medium with different concentrations of H-120 (0.125 μM, 0.25 μM, 0.5 μM, 1 μM). After being treated with H-120 for 48 h, the cells were preincubated with JC-1 working solution for 20 min at 37 °C, 5% CO2. After incubation, the dye was removed, and the cells were washed two times with JC-1 [48].

[8] = test system: HEL cells; assay: Cell cycle analysis (PI, flow cytometry); type: cell-based; conditions: 0.125-1 μM, 24 h
Experimental: (§5) Cell cycle regulation is critical for cell differentiation and proliferation. To investigate whether H-120 affects the cell cycle of HEL, we treated HEL cells with various concentrations of H-120.
For the apoptosis detection assay, the logarithmically grown HEL cells were treated with H-120 solution (0.125 μM, 0.25 μM, 0.5 μM, and 1 μM) for 24 h, 48 h, and 72 h. Subsequently, the cells were collected and rinsed three times with pre-cooled PBS. Based on the instruction of the Annexin V-FITC apoptosis detection kit, the cells were resuspended in 50 μL of 1 × binding buffer and stained for 15 minutes. Then, the apoptosis rate was determined using flow cytometry (ACEA NovoCyte, San Diego, CA, United States). For cell cycle analysis, HEL cells were treated with the different concentrations of H-120 (0.125 μM, 0.25 μM, 0.5 μM, 1 μM) for 24 h. Cells were collected, fixed with pre-cooled 70% ethanol, and kept at 4 °C for 4 h before being transferred to −20 °C overnight. Cells were stained with 0.5 mL of PI (propidium iodide, 50 µg/mL), RNase (5 µg/mL) inhibitor, and Triton × 100 (0.5 µg/mL) for 10 min at room temperature in the dark and then analyzed by flow cytometry.

[9] = test system: HEL cells; assay: Hoechst 33258 staining (DNA damage); type: cell-based; conditions: 0.125-1 μM, 24 h
Experimental: as §5
After subjecting HEL cells to H-120 solution (0.125 μM, 0.25 μM, 0.5 μM, 1μM) for 24 h, the cells were collected, resuspended, and washed with pre-cooled PBS. Subsequently, the cells were fixed, stained, and washed according to the instructions provided by the Apoptosis-Hoechst 33258 Staining Kit. To prevent fluorescence interference, an appropriate volume of anti-fluorescence quenching sealing solution was added to the cells. The cells were then placed on a spare slide, covered with a coverslip, and immediately observed and photographed using a Nikonfluorescence microscope.

[10] = test system: HEL cells; assay: Western blotting of cell cycle, apoptosis, Ras/Raf/MEK/ERK and STAT3/c-Myc proteins; type: cell-based; conditions: Western blot
From the text: as §5
To study the effect of H-120 on apoptosis proteins, we treated HEL cells with various concentrations of H-120.
To assess whether the effect of H-120 on HEL cells is involved in the inactivation of Ras/Raf/MEK/ERK/MAPK signaling pathway, we tracked this pathway bottom-up in HEL cells treated with H-120 using Western blotting.
To examine the effect of H-120 on the p-STAT3 and c-Myc, we checked the p-STAT3 and c-Myc levels in HEL cells treated with H-120. […] STAT3 acts through its phosphorylation and enters nuclear. The nuclear–cytoplasmic separation experiment was conducted.
HEL cells were collected after 24 h of H-120 treatment and washed with PBS, and the supernatant was discarded. According to the instructions of the Nuclear and Cytoplasmic Protein Extraction Kit (Beyotime Biotechnology, Shanghai, China), we added cytoplasmic protein extraction reagent A equipped with PMSF (phenylmethanesulfonyl fluoride) and used vigorous vortexing at 2500 rpm for 5 s to suspend and disperse the cell precipitation entirely. After 15 min of an ice bath, we added cytoplasmic protein extraction reagent B. The sample was vigorously vortexed at 2500 rpm for 5 s, then centrifuged at 4 °C for 5 min at 12,000× g, and the supernatant was extracted to leave a precipitate. The supernatant was the cytoplasmic protein. For the precipitate, the […] protein extraction reagent equipped with PMSF was added immediately, mixed, and then placed on ice. The highest-speed vigorous vortex was performed for 20 s every 2 min for 30 min, followed by centrifugation at 12,000× g at 4 °C for 10 min. Finally, the supernatant was taken as the nuclear protein.
HEL cells after drug action were collected, added to and mixed with cell lysis buffer, and […] on ice for one hour before protein concentration was detected using a BCA (bicinchoninic acid) kit. Proteins (50 μg) were separated by sodium dodecyl sulfate-polyacrylamide gel electrophoresis and transferred to a PVDF (polyvinylidene fluoride) membrane ([…], Bio-Rad, Hercules, CA, USA) via wet transfer. Then, 5% bovine serum albumin closed the membrane for 1 h, and the membrane was washed three times with TBS (20 mM Tris-HCl) for 5 min each time. Membranes were allowed to incubate with the primary antibody overnight at 4 °C. The anti-rabbit antibody secondary antibody was incubated at room temperature for 2 h. Then, the membrane was washed with 1× TBST (20 mM Tris-HCl, 0.1% Tween 20) for 15 min. After washing, the fetal membrane was scanned with an infrared imaging scanner. β-actin was used as a loading control.

## CNC(=O)c1ccsc1Nc1nc(Nc2ccc(Nc3c(NC45CC6CC(CC(C6)C4)C5)c(=O)c3=O)cc2)ncc1C(F)(F)F [H-123, 2-((2-((4-((2-(((1R,3R,5S)-Adamantan-1-yl)amino)-3,4-dioxocyclobut-1-en-1-yl)amino)phenyl)amino)-5-(trifluoromethyl)pyrimidin-4-yl)amino)-N-methylthiophene-3-carboxamide]
[1]
  IC50: > 20 µM
[2]
  IC50: 5.2 ± 1.17 µM
[3]
  IC50: > 20 µM
[4]
  IC50: > 20 µM

## CC[C@]1(O)C[C@H]2CN(CCc3c([nH]c4ccccc34)[C@@](C(=O)OC)(c3cc4c(cc3OC)N(C=O)[C@H]3[C@@](O)(C(=O)OC)[C@H](OC(C)=O)[C@]5(CC)C=CCN6CC[C@]43[C@@H]65)C2)C1 [VCR, Vincristine, reference compound]
[5]; vs model group
  number of leukemic cells in the spleens (H&E staining): decreased significantly

## C=CC(=O)Nc1ccc(Nc2ncc(C)c(Nc3sccc3C(=O)NC)n2)cc1 [H-121, 2-((2-((4-Acrylamidophenyl)amino)-5-methylpyrimidin-4-yl)amino)-N-methylthiophene-3-carboxamide]
[1]
  IC50: 8.78 ± 0.45 µM
[2]
  IC50: 10.4 ± 0.238 µM
[3]
  IC50: > 20 µM
[4]
  IC50: > 20 µM

## C#CC(=O)Nc1ccc(Nc2ncc(C)c(Nc3sccc3C(=O)NC)n2)cc1 [H-120, 2-[5-Methyl-2-(4-propynoylamino-phenylamino)-pyrimidin-4-ylamino]-thiophene-3-carboxylic acid methylamide]
[1]; 24 h, 48 h and 72 h
  HEL cell proliferation: prevented the HEL cell proliferation in a dose- and time-dependent manner
[1]
  IC50: 0.148 ± 0.04 µM
[2]
  IC50: 0.665 ± 0.02 µM
[3]
  IC50: 2.34 ± 0.22 µM
[4]
  IC50: > 20 µM
[6]; 48 h
  apoptosis rate of HEL cells: 14.28%
[6]; 72 h
  apoptosis rate of HEL cells: 36.45%
[7]
  relative value of the JC-1 monomer: significantly increased
[8]
  proportion of the G2/M phase in HEL cells: increased
[9]
  DNA damage (Hoechst staining): caused DNA damage in a dose-dependent manner
[10]
  Bad, cleaved caspase-9, cleaved caspase-3 and cleaved PARP expression: up-regulated considerably
  Bcl-2 and Bcl-xL expression: significantly down-regulated
  expressions of Ras, phosphorylated Raf, MEK and ERK: significantly reduce
[10]; dose-dependent
  levels of cell cycle proteins p-CDC25C and CyclinB1: decreased
  p53 level: up-regulated
  p-STAT3 and c-Myc levels: significantly down-regulated
[5]; erythroleukemia mice
  effects on renal and cardiac functions (URA, CREA, UA, CK-MB): no effects
[5]; flow cytometry
  proportions of CD4, CD8a and B220 cells in spleen: increased significantly
[5]; flow cytometry, vs model group
  mature erythrocytes CD71-Ter119+ in spleen cells and bone marrow cells: significantly increased
[5]; vs model group
  levels of liver index, ALT and AST: significantly lower
  number of leukemic cells in the spleens (H&E staining): decreased significantly
[5]; vs model mice, H-120 1, 2, 4 mg/kg intraperitoneally every other day for 3 weeks
  spleen weight: significantly declined

## CNC(=O)c1ccccc1Nc1nc(Nc2ccc(Nc3c(NC45CC6CC(CC(C6)C4)C5)c(=O)c3=O)cc2)ncc1C(F)(F)F [H-122, 2-((2-((4-((2-(((1R,3R,5S)-Adamantan-1-yl)amino)-3,4-dioxocyclobut-1-en-1-yl)amino)phenyl)amino)-5-(trifluoromethyl)pyrimidin-4-yl)amino)-N-methylbenzamide]
[1]
  IC50: 11.5 ± 0.53 µM
[2]
  IC50: 1.63 ± 0.28 µM
[3]
  IC50: 16.3 ± 1.11 µM
[4]
  IC50: > 20 µM
